Target: T1, CCL21 (CC chemokine ligand 21), truncated (Homo sapiens, UniProt O00585)
T1 sequence (O00585 24-102): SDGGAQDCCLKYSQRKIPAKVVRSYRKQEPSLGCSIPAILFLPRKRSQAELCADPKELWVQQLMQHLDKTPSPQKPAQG
Experiment: 2D 1H-15N HSQC NMR titration
Type: binding

- Kd: ~38.9 mM
SMILES: N[C@@H](Cc1ccc(OS(=O)(=O)O)cc1)C(=O)O [sY, sulfotyrosine]

Reference: publication PMC5498006 (Biochemistry, 2016)
